In patent US9340577B2, “HLA binding motifs and peptides and their uses” (priority 1992, dated 2016):
No end group written: not given here.

Tests used:
Assay in all cases: biochemical
Type in all cases: binding
[1] = target: A*0202 (Homo sapiens, UniProt P04439, D140Y/D185E/D98H/E176V/E277Q/G131W/G231S/I119L/I121R/I166T/I218V/L180W/L300P/L318F/N151K/N90K/P208A/P217A/Q67R/Q86G/Q94H/R138H/R169H/T345S)
[2] = target: A*6802 (Homo sapiens, UniProt P04439, A269V/D140Y/D185E/E176V/E277Q/E87N/F33Y/G231S/I121R/I166T/I218V/L180W/L300P/L318F/N151K/P208A/P217A/Q86R/R138H/R169H/S129P/T345S/V36M)
[3] = target: HLA-A*0201 (HLA-A2.1) (Homo sapiens, UniProt P04439, D140Y/D185E/D98H/E176V/E277Q/G131W/G231S/I119V/I121R/I166T/I218V/L300P/L318F/N151K/N90K/P208A/P217A/Q86G/Q94H/R138H/R169H/T345S)
[4] = target: A*0203 (Homo sapiens, UniProt P04439, A173T/D140Y/D185E/D98H/E277Q/G131W/G231S/I119V/I121R/I166T/I218V/L180W/L300P/L318F/N151K/N90K/P208A/P217A/Q86G/Q94H/R138H/R169H/T345S)
[5] = target: A*0206 (Homo sapiens, UniProt P04439, D140Y/D185E/D98H/E176V/E277Q/F33Y/G131W/G231S/I119V/I121R/I166T/I218V/L300P/L318F/N151K/N90K/P208A/P217A/Q86G/Q94H/R138H/R169H/T345S)

Sequence	IC50 [1] [nM]	IC50 [2] [nM]	IC50 [3] [nM]	IC50 [4] [nM]	IC50 [5] [nM]
QLSNGNRTLTL [Peptide 9013.0292]	80	> 20000	> 20000	683	> 20000
QLSNGNRTLV [Peptide 9013.0229]	66	> 20000	> 20000	146	> 20000
QLSTQELFI [Peptide 9013.0057]	4.5	8170	65	27	7470
QQIEFITFL [Peptide 1578.10]	5.9	93	42	20	45
QQIEFVSFL [Peptide 1578.16]	3.3	44	19	14	49
QQSTQELFV [Peptide 9013.0056]	163	> 20000	1590	409	593
RILQHLLFA [Peptide 1525.24]	220	> 20000	160	51	11
RILQQLLFA [Peptide 1525.14]	68	> 20000	123	68	20
RILQQLLFV [Peptide 1525.09]	489	17900	28	60	18
RILQQLLLI [Peptide 1525.20]	4680	> 20000	199	1000	82
RILQQMLFI [Peptide 1525.22]	709	> 20000	187	241	108
RILQRLLFV [Peptide 1525.27]	1590	> 20000	64	11	73
RLENAILFTA [Peptide 1578.51]	43	> 20000	2150	1770	4560
RLLQQLLFI [Peptide 1525.10]	70	> 20000	27	46	19
RLLTLLSVT [Peptide 9013.0076]	4610	> 20000	1830	1600	482
RLQLSNGNRTL [Peptide 9013.0286]	443	> 20000	> 20000	2840	> 20000
RLQLSNGNRTV [Peptide 9013.0328]	128	4840	5900	57	> 20000
RLTVTTITV [Peptide 9013.0067]	22	13000	108	36	704
RLTVTTITVYA [Peptide 9013.0305]	23	53	243	205	1100
RMLQHLLFI [Peptide 1545.04]	10	> 20000	16	4	14
RMLQQLLFI [Peptide 1525.12]	128	18700	15	12	16
RMLQQLLFV [Peptide 1525.16]	21	> 20000	21	6.8	14
RTLQLLLFV [Peptide 1525.25]	371	3210	4.7	468	11
RTLQQLLFI [Peptide 1525.11]	> 20000	> 20000	152	1660	89
RTLQQLLFV [Peptide 1525.15]	1280	> 20000	120	190	30
RTLTLLSVV [Peptide 9013.0075]	6020	> 20000	505	300	88
RTTVKTITVSV [Peptide 9013.0318]	866	1.4	1590	457	137

Sequence	IC50 [1] [nM]	IC50 [2] [nM]	IC50 [3] [nM]	IC50 [4] [nM]	IC50 [5] [nM]
RVLQQLLFV [Peptide 1545.05]	1010	> 20000	10	29	6.4
SLNRSDPVT [Peptide 9013.0099]	121	> 20000	> 20000	2490	> 20000
SLNRSDPVTL [Peptide 9013.0233]	59	> 20000	16200	80	> 20000
SLQDSQFEL [Peptide 1578.35]	1.4	8850	141	165	160
SLYTHLQCL [Peptide 1578.20]	2.6	8470	224	11	540
TAKLTIESV [Peptide 9013.0009]	480	243	> 20000	216	10700
TILQQLLFI [Peptide 1525.26]	2790	7030	95	367	91
TLELFIPNITV [Peptide 9013.0299]	502	1040	161	15800	2330
TLELFISNI [Peptide 9013.0082]	170	949	2460	1700	3850
TLFNVTRNDV [Peptide 9013.0230]	69	> 20000	1480	25	4840
TLKLTIEST [Peptide 9013.0010]	80	> 20000	18300	24	> 20000
TLNNSGSYT [Peptide 9013.0065]	237	> 20000	> 20000	233	> 20000
TLQATPGPA [Peptide 9013.0028]	1980	> 20000	19400	29	> 20000
TLQDVSLEV [Peptide 1578.45]	18	2680	701	26	2070
TLTTITVYA [Peptide 9013.0069]	0.75	5	14	2.6	666
TVNNSGSYV [Peptide 9013.0064]	310	44	16600	39	> 20000
TVTTITVYV [Peptide 9013.0068]	12	3	102	58	95
VIKSDLVNEEV [Peptide 9013.0278]	57	> 20000	> 20000	1730	> 20000
VLAEAMAAA [Peptide 1516.12]	1.9	639	17	3.2	16
VLAEAMGQV [Peptide 1539.05]	1.7	168	55	3.2	75
VLAEAMSHT [Peptide 1539.06]	16	> 20000	243	7.5	975
VLAEAMSHV [Peptide 1516.08]	1.9	304	29	5.5	89
VLAEAMSRV [Peptide 1516.10]	2.6	487	40	3.7	75
VLEGKEVLLLV [Peptide 9013.0273]	32	> 20000	1840	272	4610
VLKSDLVNEEA [Peptide 9013.0279]	14	> 20000	> 20000	3420	> 20000
VQWAFDNEL [Peptide 86.0182]	319	> 20000	3230	449	256
